Consider 44 compounds from ChEMBL document CHEMBL1165900, “A computational study of the binding of 3-(arylidene) anabaseines to two major brain nicotinic acetylcholine receptors and to the acetylcholine binding protein” (Eur J Med Chem, 2010).

In assay [1] the target is Neuronal acetylcholine receptor; alpha4/beta2 (Rattus norvegicus) (UniProt P09483+P12390). In words: (§1) Displacement of [3H]cytisine from alpha4beta2 nAChR in rat brain membrane after 3 hrs. It is filed as cell membranes.
Assay [2] concerns the target Neuronal acetylcholine receptor; alpha4/beta2 (Rattus norvegicus, UniProt P09483+P12390). The description is as §1. It is filed as cell membranes.
Assay [3] deals with Neuronal acetylcholine receptor subunit alpha-7 (Rattus norvegicus, UniProt Q05941). It is filed as cell membranes, Brain, Membrane.
Description: (§2) Displacement of [125I]-alpha-bungarotoxin from alpha7 nAChR in rat brain membrane after 3 hrs
Assay [4] addresses Neuronal acetylcholine receptor subunit alpha-7 (Rattus norvegicus) (UniProt Q05941). The conditions noted are these: Brain, Membrane.
Description: as §2

Sequence of Neuronal acetylcholine receptor subunit alpha-7 (Rattus norvegicus) (Q05941 whole entry): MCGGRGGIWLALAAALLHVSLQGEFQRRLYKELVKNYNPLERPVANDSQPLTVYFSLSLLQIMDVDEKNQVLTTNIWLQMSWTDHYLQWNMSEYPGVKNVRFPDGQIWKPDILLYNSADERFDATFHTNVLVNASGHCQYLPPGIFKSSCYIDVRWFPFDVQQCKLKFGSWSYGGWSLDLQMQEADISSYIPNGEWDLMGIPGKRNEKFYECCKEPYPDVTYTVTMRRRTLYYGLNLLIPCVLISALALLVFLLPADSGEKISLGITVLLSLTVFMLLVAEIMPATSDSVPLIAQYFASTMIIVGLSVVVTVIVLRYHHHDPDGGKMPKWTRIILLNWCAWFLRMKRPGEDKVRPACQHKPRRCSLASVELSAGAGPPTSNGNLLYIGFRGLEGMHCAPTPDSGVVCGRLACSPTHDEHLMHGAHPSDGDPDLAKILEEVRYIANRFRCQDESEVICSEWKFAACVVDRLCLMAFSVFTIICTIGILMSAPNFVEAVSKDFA
Sequence of Neuronal acetylcholine receptor subunit alpha-7 (Q05941 whole entry): as above
Sequence of Neuronal acetylcholine receptor; alpha4/beta2 (P09483 whole entry): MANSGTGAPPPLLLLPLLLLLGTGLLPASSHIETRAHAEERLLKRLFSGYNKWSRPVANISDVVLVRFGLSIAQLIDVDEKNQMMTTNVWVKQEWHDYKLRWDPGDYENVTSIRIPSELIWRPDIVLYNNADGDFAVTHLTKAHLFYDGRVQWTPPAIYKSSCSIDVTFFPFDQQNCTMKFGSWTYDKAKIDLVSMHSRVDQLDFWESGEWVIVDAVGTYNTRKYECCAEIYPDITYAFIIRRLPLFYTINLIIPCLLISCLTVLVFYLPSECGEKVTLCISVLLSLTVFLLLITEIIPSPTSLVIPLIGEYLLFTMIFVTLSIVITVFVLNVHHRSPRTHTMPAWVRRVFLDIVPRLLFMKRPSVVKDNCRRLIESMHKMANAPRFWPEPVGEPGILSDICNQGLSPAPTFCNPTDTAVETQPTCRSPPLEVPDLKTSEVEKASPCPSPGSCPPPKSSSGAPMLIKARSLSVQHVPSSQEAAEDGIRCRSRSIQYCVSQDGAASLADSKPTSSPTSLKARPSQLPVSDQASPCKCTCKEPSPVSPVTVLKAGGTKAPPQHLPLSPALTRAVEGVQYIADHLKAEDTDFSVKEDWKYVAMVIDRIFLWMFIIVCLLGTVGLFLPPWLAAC
Sequence of Neuronal acetylcholine receptor; alpha4/beta2 (P12390 whole entry): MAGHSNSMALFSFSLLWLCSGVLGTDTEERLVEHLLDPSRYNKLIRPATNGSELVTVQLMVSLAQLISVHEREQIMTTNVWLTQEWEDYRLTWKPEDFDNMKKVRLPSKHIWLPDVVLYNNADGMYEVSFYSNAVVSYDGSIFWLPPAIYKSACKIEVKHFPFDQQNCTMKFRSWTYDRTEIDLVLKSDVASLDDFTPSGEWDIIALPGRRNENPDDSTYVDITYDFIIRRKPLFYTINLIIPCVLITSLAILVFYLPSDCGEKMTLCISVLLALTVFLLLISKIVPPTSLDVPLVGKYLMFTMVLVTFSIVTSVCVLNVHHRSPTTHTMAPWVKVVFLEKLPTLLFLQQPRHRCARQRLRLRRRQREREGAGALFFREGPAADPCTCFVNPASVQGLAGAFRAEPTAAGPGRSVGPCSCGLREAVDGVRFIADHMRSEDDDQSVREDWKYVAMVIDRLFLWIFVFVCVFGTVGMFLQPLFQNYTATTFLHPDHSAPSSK

As for `COc1ccc(/C=C2\CCCN=C2c2cccnc2)c(OC)c1` [GTS-21], the Ki in assay [1] came to 602 nM; in assay [2], 250 nM; in assay [3] it was 130 nM; in assay [4] it was 886 nM.
For `COc1cc(OC)c(/C=C2\CCCN=C2c2cccnc2)c(OC)c1` the same measures were 1220 nM, 60 nM, 180 nM and 745 nM.
On the same counts, the results for `Cc1cc(/C=C2\CCCN=C2c2cccnc2)cc(C)c1O` are 444 nM, 360 nM, 530 nM and 276 nM.
Regarding `C(=C1/CCCN=C1c1cccnc1)/c1ccc(N2CCOCC2)cc1`, the Ki was found to be 553 nM in assay [1], 280 nM in assay [2], 300 nM in assay [3] and 523 nM in assay [4].
Turning to `C(=C1/CCCN=C1c1cccnc1)/c1cc2ccccc2o1`, the Ki was 772 nM in assay [1] and 823 nM in assay [4].
In assay [2], `CC(=O)c1ccc(/C=C2\CCCN=C2c2cccnc2)cc1` came in with a Ki of 4490 nM.
In assay [2], `FC(F)(F)Oc1ccc(/C=C2\CCCN=C2c2cccnc2)cc1` showed a Ki of 930 nM.
`CN(C)c1ccc(/C=C2\CCCN=C2c2cccnc2)cc1`: the Ki in assay [1] is 770 nM; in assay [2] it was 170 nM; in assay [3], 80 nM; in assay [4], 1100 nM.
As to `C(=C1/CCCN=C1c1cccnc1)/c1ccc2c(c1)OCCO2`, the inhibition constant Ki in assay [1] was determined as 284 nM; in assay [4], 699 nM.
With `CCCCOc1ccc(/C=C2\CCCN=C2c2cccnc2)cc1`, the Ki in assay [2] came out at 1960 nM.
For the compound `CNc1ccc(/C=C2\CCCN=C2c2cccnc2)cc1`, the Ki is 1300 nM in assay [1], 50 nM in assay [2], 50 nM in assay [3] and 1300 nM in assay [4].
With `Clc1ccc(/C=C2\CCCN=C2c2cccnc2)cc1`, the Ki in assay [1] was found to be 13 nM; in assay [2], 970 nM; in assay [3], 1120 nM; in assay [4] it was 49 nM.
Consider `COc1ccc2cc(/C=C3\CCCN=C3c3cccnc3)ccc2c1`, for which the Ki in assay [1] came to 222 nM; in assay [4], 432 nM.
As to `Nc1ccc(/C=C2\CCCN=C2c2cccnc2)cc1`, the Ki in assay [1] was 921 nM; in assay [2], 120 nM; in assay [3], 50 nM; in assay [4], 1300 nM.
On the same counts, the results for `Cc1cc(O)cc(C)c1/C=C1\CCCN=C1c1cccnc1` are 174 nM, 670 nM, 5490 nM and 740 nM.
For `CCC(CC)Oc1cc(OC)ccc1/C=C1\CCCN=C1c1cccnc1` the same measures were 367 nM, 430 nM, 50 nM and 1300 nM.
For `FC(F)Oc1ccccc1/C=C1\CCCN=C1c1cccnc1`, the Ki in assay [2] was 1410 nM.
In the case of `FC(F)(F)Oc1ccccc1/C=C1\CCCN=C1c1cccnc1`, the Ki in assay [1] was 246 nM; in assay [2], 1760 nM.
For `CCCc1ccc(/C=C2\CCCN=C2c2cccnc2)cc1`, the Ki in assay [1] is 51 nM; in assay [2] it was 890 nM; in assay [3] it was 280 nM; in assay [4], 553 nM.
In the case of `COc1ccc(/C=C2\CCCN=C2c2cccnc2)cc1`, the Ki in assay [1] turned out to be 310 nM; in assay [2], 490 nM; in assay [3], 570 nM; in assay [4], 244 nM.
Regarding `Oc1cccc(/C=C2\CCCN=C2c2cccnc2)c1`, the Ki came out at 68 nM in assay [1], 1170 nM in assay [2], 150 nM in assay [3] and 824 nM in assay [4].
On the same counts, the results for `CC(=O)Oc1ccccc1/C=C1\CCCN=C1c1cccnc1` are 155 nM, 700 nM, 570 nM and 244 nM.
On to `FC(F)Oc1ccc(/C=C2\CCCN=C2c2cccnc2)cc1`, for which the Ki is 64 nM in assay [1], 1160 nM in assay [2], 1010 nM in assay [3] and 4 nM in assay [4].
For the compound `C(=C1/CCCN=C1c1cccnc1)/c1ccc(-n2ccnn2)cc1`, the Ki in assay [1] is 284 nM; in assay [4], 72 nM.
As for `Oc1ccc(/C=C2\CCCN=C2c2cccnc2)cc1`, the Ki was 347 nM in assay [1], 450 nM in assay [2], 360 nM in assay [3] and 444 nM in assay [4].
As to `Cc1ccc(/C=C2\CCCN=C2c2cccnc2)cc1`, the Ki in assay [1] came to 4 nM; in assay [2] it was 990 nM; in assay [3], 436 nM; in assay [4], 361 nM.
As for `C(=C1/CCCN=C1c1cccnc1)/c1ccc2c(c1)OCO2`, the results for the Ki in assay [1] and in assay [4] were 155 nM and 638 nM, respectively.
Consider `COc1cc(/C=C2\CCCN=C2c2cccnc2)cc(OC)c1OC`, for which the Ki is 669 nM in assay [1], 4670 nM in assay [2], 3480 nM in assay [3] and 542 nM in assay [4].
On the same counts, the results for `COc1ccc(/C=C2\CCCN=C2c2cccnc2)c(OC(C)=O)c1` are 114 nM, 770 nM, 300 nM and 523 nM.
For `COc1ccc(/C=C2\CCCN=C2c2cccnc2)c(OC(C)C)c1` the same measures were 770 nM, 170 nM, 70 nM and 1160 nM.
On the same counts, the results for `CCN(CC)c1ccc(/C=C2\CCCN=C2c2cccnc2)c(O)c1` are 886 nM, 130 nM, 50 nM and 1300 nM.
Take `CC(=O)Nc1ccc(/C=C2\CCCN=C2c2cccnc2)cc1`: the Ki was determined as 420 nM in assay [1], 380 nM in assay [2], 240 nM in assay [3] and 620 nM in assay [4].
Take `Oc1ccc(/C=C2\CCCN=C2c2cccnc2)c(O)c1`: the Ki came out at 678 nM in assay [1], 210 nM in assay [2], 200 nM in assay [3] and 699 nM in assay [4].
On the same counts, the results for `COc1ccc(/C=C2\CCCN=C2c2cccnc2)c(O)c1` are 409 nM, 390 nM, 320 nM and 495 nM.
As to `COc1cccc(/C=C2\CCCN=C2c2cccnc2)c1`, the Ki in assay [1] came out at 72 nM; in assay [2], 1180 nM; in assay [3], 460 nM; in assay [4] it was 337 nM.
On the same counts, the results for `C(=C1/CCCN=C1c1cccnc1)/c1ccccc1` [3-BENZYLIDENEANABASEINE] are 71 nM, 850 nM, 600 nM and 222 nM.
On to `CC(C)(C)C(=O)Oc1ccccc1/C=C1\CCCN=C1c1cccnc1`, for which the Ki in assay [1] turned out to be 158 nM; in assay [2] it was 1440 nM; in assay [3], 650 nM; in assay [4] it was 187 nM.
On the same counts, the results for `CC(=O)Oc1ccc(/C=C2\CCCN=C2c2cccnc2)cc1` are 602 nM, 250 nM, 170 nM and 770 nM.
For `Cc1cc(C)c(/C=C2\CCCN=C2c2cccnc2)c(C)c1` the same measures were 284 nM, 520 nM, 1510 nM and 179 nM.
`OCCN(CCO)c1ccc(/C=C2\CCCN=C2c2cccnc2)cc1`: the Ki in assay [1] came out at 796 nM; in assay [2], 160 nM; in assay [3], 190 nM; in assay [4], 721 nM.
On the same counts, the results for `CC(C)(C)Oc1ccc(/C=C2\CCCN=C2c2cccnc2)cc1` are 336 nM, 2170 nM, 2230 nM and 348 nM.
In the case of `CSc1ccc(/C=C2\CCCN=C2c2cccnc2)cc1`, the Ki is 46 nM in assay [1], 900 nM in assay [2], 250 nM in assay [3] and 602 nM in assay [4].
On the same counts, the results for `N#Cc1ccc(/C=C2\CCCN=C2c2cccnc2)cc1` are 90 nM, 1230 nM, 2300 nM and 362 nM.
On the same counts, the results for `CC(C)(C)C(=O)Oc1ccc(/C=C2\CCCN=C2c2cccnc2)cc1` are 81 nM, 830 nM, 690 nM and 161 nM.
